Key:
Assay in all cases: Test D controlled growth environment herbicide test, pre- and postemergence
Format in all cases: in vivo
[1] = system: barley, spring (spring barley, Hordeum vulgare)
Procedure, shortened: (§1)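 Pre-emergence: seeds sown in silt loam soil were sprayed with compound in a non-phytotoxic solvent mix containing surfactant. Post-emergence: plants at 2 to 18 cm (1- to 4-leaf stage) in peat moss/vermiculite medium got the same formulation. Visual 0–100 rating versus controls after 14 to 21 d.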

[2] = system: blackgrass (Alopecurus myosuroides)
Procedure, shortened: as §1

[3] = system: bluegrass (annual bluegrass, Poa annua)
Procedure, shortened: as §1

[4] = system: chamomile (scentless chamomile, Matricaria inodora)
Procedure, shortened: as §1

[5] = system: field poppy (Papaver rhoeas)
Procedure, shortened: as §1

[6] = system: foxtail, green (green foxtail, Setaria viridis)
Procedure, shortened: as §1

[7] = system: lambsquarters (Chenopodium album)
Procedure, shortened: as §1

[8] = system: mustard, wild (wild mustard, Sinapis arvensis)
Procedure, shortened: as §1

[9] = system: oilseed rape (Brassica napus)
Procedure, shortened: as §1

[10] = system: ryegrass, Italian (Italian ryegrass, Lolium multiflorum)
Procedure, shortened: as §1

[11] = system: speedwell (bird's-eye speedwell, Veronica persica)
Procedure, shortened: as §1

[12] = system: wheat, spring (spring wheat, Triticum aestivum)
Procedure, shortened: as §1

[13] = system: wheat, winter (winter wheat, Triticum aestivum)
Procedure, shortened: as §1

[14] = Postemergence, 31 g ai/ha, scale 0 to 100 (0 no effect, 100 complete control)
[15] = Postemergence, 125 g ai/ha, visual rating on scale 0 (no effect) to 100 (complete control), 14 to 21 d
[16] = Postemergence, 250 g ai/ha, scale 0 to 100 (0 no effect, 100 complete control)
[17] = Preemergence, 62 g ai/ha, scale 0 to 100 (0 no effect, 100 complete control)
[18] = Preemergence, 125 g ai/ha, scale 0 to 100 (0 no effect, 100 complete control)
[19] = Preemergence, 250 g ai/ha, scale 0 to 100 (0 no effect, 100 complete control)
[20] = postemergence, 62 g ai/ha, scale 0 to 100, 0 no effect, 100 complete control

For CCC(=O)Oc1c(C)nn(C)c(=O)c1-c1c(C)sc2ccc(Cl)cc12 [Compound 109], the “Barley, Spring plant response rating” value [1, 14] was 0, the “Plant response rating, Barley, Spring” value [1, 15] was 10 and the “Plant response rating, Barley, Spring” value [1, 16] was 25. The “Plant response rating (scale of 0 to 100), Barley, Spring” value ([1]; Preemergence, 31 g ai/ha) was 0, the “Plant response rating, Barley, Spring” value [1, 17] was 0 and the “Plant response rating, Barley, Spring” value [1, 18] was 5. For the same molecule, the “Plant response rating, Barley, Spring” value [1, 19] was 5, the “Plant response rating, Barley, Spring” value [1, 20] was 5 and the “Blackgrass plant response rating” value [2, 14] was 20. For the same molecule, the “Plant response rating, Blackgrass” value [2, 15] was 65, the “Plant response rating, Blackgrass” value [2, 16] was 75 and the “Plant response rating (scale of 0 to 100), Blackgrass” value ([2]; Preemergence, 31 g ai/ha) was 25. The “Plant response rating, Blackgrass” value [2, 17] was 25, the “Plant response rating, Blackgrass” value [2, 18] was 75 and the “Plant response rating, Blackgrass” value [2, 19] was 80. The “Plant response rating, Blackgrass” value [2, 20] was 30, the “Bluegrass plant response rating” value [3, 14] was 5 and the “Plant response rating, Bluegrass” value [3, 15] was 25. The “Plant response rating, Bluegrass” value [3, 16] was 45, the “Plant response rating (scale of 0 to 100), Bluegrass” value ([3]; Preemergence, 31 g ai/ha) was 10 and the “Plant response rating, Bluegrass” value [3, 17] was 20. For the same molecule, the “Plant response rating, Bluegrass” value [3, 18] was 30, the “Plant response rating, Bluegrass” value [3, 19] was 60 and the “Plant response rating, Bluegrass” value [3, 20] was 15. The “Chamomile plant response rating” value [4, 14] was 80, the “Plant response rating, Chamomile” value [4, 15] was 95 and the “Plant response rating, Chamomile” value [4, 16] was 100. The “Plant response rating, Chamomile” value [4, 20] was 85, the “Field Poppy plant response rating” value [5, 14] was 45 and the “Plant response rating, Field Poppy” value [5, 15] was 75. The “Plant response rating, Field Poppy” value [5, 16] was 85, the “Plant response rating (scale of 0 to 100), Field Poppy” value ([5]; Preemergence, 31 g ai/ha) was 100 and the “Plant response rating (scale of 0 to 100), Field Poppy” value ([5]; Preemergence, 62 g ai/ha) was 100. For the same molecule, the “Plant response rating, Field Poppy” value [5, 18] was 100, the “Plant response rating, Field Poppy” value [5, 19] was 100 and the “Plant response rating, Field Poppy” value [5, 20] was 50. For the same molecule, the “Foxtail, Green plant response rating” value [6, 14] was 55, the “Plant response rating, Foxtail, Green” value [6, 15] was 75 and the “Plant response rating, Foxtail, Green” value [6, 16] was 85. For the same molecule, the “Plant response rating (scale of 0 to 100), Foxtail, Green” value ([6]; Preemergence, 31 g ai/ha) was 0, the “Plant response rating (scale of 0 to 100), Foxtail, Green” value ([6]; Preemergence, 62 g ai/ha) was 65 and the “Plant response rating, Foxtail, Green” value [6, 18] was 75. For the same molecule, the “Plant response rating, Foxtail, Green” value [6, 19] was 95, the “Plant response rating, Foxtail, Green” value [6, 20] was 65 and the “Lambsquarters plant response rating” value [7, 14] was 90. For the same molecule, the “Plant response rating, Lambsquarters” value [7, 15] was 95, the “Plant response rating, Lambsquarters” value [7, 16] was 100 and the “Plant response rating (scale of 0 to 100), Lambsquarters” value ([7]; Preemergence, 31 g ai/ha) was 95. For the same molecule, the “Plant response rating (scale of 0 to 100), Lambsquarters” value ([7]; Preemergence, 62 g ai/ha) was 100, the “Plant response rating, Lambsquarters” value [7, 18] was 100 and the “Plant response rating, Lambsquarters” value [7, 19] was 100. For the same molecule, the “Plant response rating, Lambsquarters” value [7, 20] was 95, the “Mustard, Wild plant response rating” value [8, 14] was 60 and the “Plant response rating, Mustard, Wild” value [8, 15] was 90. The “Plant response rating, Mustard, Wild” value [8, 16] was 100, the “Plant response rating (scale of 0 to 100), Mustard, Wild” value ([8]; Preemergence, 31 g ai/ha) was 5 and the “Plant response rating (scale of 0 to 100), Mustard, Wild” value ([8]; Preemergence, 62 g ai/ha) was 75. The “Plant response rating, Mustard, Wild” value [8, 18] was 100, the “Plant response rating, Mustard, Wild” value [8, 19] was 100 and the “Plant response rating, Mustard, Wild” value [8, 20] was 85. The “Oilseed Rape plant response rating” value [9, 14] was 65, the “Plant response rating, Oilseed Rape” value [9, 15] was 75 and the “Plant response rating, Oilseed Rape” value [9, 16] was 85. The “Plant response rating (scale of 0 to 100), Oilseed Rape” value ([9]; Preemergence, 31 g ai/ha) was 15, the “Plant response rating (scale of 0 to 100), Oilseed Rape” value ([9]; Preemergence, 62 g ai/ha) was 40 and the “Plant response rating, Oilseed Rape” value [9, 18] was 75. The “Plant response rating, Oilseed Rape” value [9, 19] was 85, the “Plant response rating, Oilseed Rape” value [9, 20] was 70 and the “Ryegrass, Italian plant response rating” value [10, 14] was 85. For the same molecule, the “Plant response rating, Ryegrass, Italian” value [10, 15] was 95, the “Plant response rating, Ryegrass, Italian” value [10, 16] was 100 and the “Plant response rating (scale of 0 to 100), Ryegrass, Italian” value ([10]; Preemergence, 31 g ai/ha) was 80. The “Plant response rating (scale of 0 to 100), Ryegrass, Italian” value ([10]; Preemergence, 62 g ai/ha) was 95, the “Plant response rating, Ryegrass, Italian” value [10, 18] was 100 and the “Plant response rating, Ryegrass, Italian” value [10, 19] was 100. For the same molecule, the “Plant response rating, Ryegrass, Italian” value [10, 20] was 85, the “Speedwell plant response rating” value [11, 14] was 50 and the “Plant response rating, Speedwell” value [11, 15] was 75. The “Plant response rating, Speedwell” value [11, 16] was 100, the “Plant response rating, Speedwell” value [11, 20] was 60 and the “Wheat, Spring plant response rating” value [12, 14] was 5. The “Plant response rating, Wheat, Spring” value [12, 15] was 25, the “Plant response rating, Wheat, Spring” value [12, 16] was 30 and the “Plant response rating (scale of 0 to 100), Wheat, Spring” value ([12]; Preemergence, 31 g ai/ha) was 0. The “Plant response rating (scale of 0 to 100), Wheat, Spring” value ([12]; Preemergence, 62 g ai/ha) was 5, the “Plant response rating, Wheat, Spring” value [12, 18] was 20 and the “Plant response rating, Wheat, Spring” value [12, 19] was 40. The “Plant response rating, Wheat, Spring” value [12, 20] was 15, the “Wheat, Winter plant response rating” value [13, 14] was 10 and the “Plant response rating, Wheat, Winter” value [13, 15] was 25. The “Plant response rating, Wheat, Winter” value [13, 16] was 35, the “Plant response rating (scale of 0 to 100), Wheat, Winter” value ([13]; Preemergence, 31 g ai/ha) was 0 and the “Plant response rating (scale of 0 to 100), Wheat, Winter” value ([13]; Preemergence, 62 g ai/ha) was 0. For the same molecule, the “Plant response rating, Wheat, Winter” value [13, 18] was 5, the “Plant response rating, Wheat, Winter” value [13, 19] was 20 and the “Plant response rating, Wheat, Winter” value [13, 20] was 15.

Reference: patent US10597388B2, “Pyridazinone herbicides” (FMC CORPORATION, priority 2014, dated 2020)
